Target: T1, bovine serum albumin (BSA) (Bos taurus, UniProt P02769)
T1 construct: gene ALB
Test: BSA intrinsic fluorescence quenching titration (Stern-Volmer; λex = […] nm, […] BSA), supported by chlorin fluorescence increase and DLS
Assay type: binding
Settings: read-out: BSA intrinsic fluorescence quenching titration (Stern-Volmer); λex = 290 nm, 5 μM (converted)

T1 sequence (P02769 25-607): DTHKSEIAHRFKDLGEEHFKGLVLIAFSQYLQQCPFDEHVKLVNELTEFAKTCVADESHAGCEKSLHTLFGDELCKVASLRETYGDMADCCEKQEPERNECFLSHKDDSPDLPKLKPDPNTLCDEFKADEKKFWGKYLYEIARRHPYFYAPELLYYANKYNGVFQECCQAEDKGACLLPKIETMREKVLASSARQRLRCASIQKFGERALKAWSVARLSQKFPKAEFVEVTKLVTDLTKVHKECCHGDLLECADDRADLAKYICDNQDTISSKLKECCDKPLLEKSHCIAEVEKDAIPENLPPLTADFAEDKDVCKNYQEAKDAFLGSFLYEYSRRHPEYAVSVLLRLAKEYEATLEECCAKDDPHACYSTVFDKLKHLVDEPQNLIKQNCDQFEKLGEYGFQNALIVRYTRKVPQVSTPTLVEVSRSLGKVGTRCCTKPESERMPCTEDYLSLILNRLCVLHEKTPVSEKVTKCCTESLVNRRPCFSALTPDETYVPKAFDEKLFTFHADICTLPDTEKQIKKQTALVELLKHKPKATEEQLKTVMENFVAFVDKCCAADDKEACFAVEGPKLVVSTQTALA

- Kd: 2740 nM
SMILES: CCC1=C(C)c2cc3[nH]c(cc4nc(c(CC(=O)OC)c5[nH]c(cc1n2)c(C)c5C(=O)NC)[C@@H](CCC(=O)OC/C=C(\C)CCCC(C)CCCC(C)CCCC(C)C)[C@@H]4C)c(C)c3C(=CC[N+](C)(C)C)C[N+](C)(C)C (mixture of isomers) [compound 1, 3(1),3(2)-bis(N,N,N-trimethylaminomethyliodide) chlorin e6 13(1)-N-methylamide-15(2)-methyl,17(3)-phytyl ester]
